Assay results reported in EP0819136B1, “MDP DERIVATIVES AND CONJUGATES HAVING HAEMATOPOIETIC FUNCTION STIMULATING ACTIVITY, AND COMPOSITIONS CONTAINING SAME” (VACSYN S.A., priority 1995, dated 1996).

Tests used:
[1] = system: globules rouges et les plaquettes; assay: Red blood cell and platelet counts after 7 days of oral AZT, Muradimétide or both (Example 3, figures 9 and 10); format: in vivo, souris femelles BALB/c; details: p.o. once daily for 7 days: 100 mg/kg AZT, 50 mg/kg muradimétide, or both simultaneously; counts up to day 10
Text: La figure 9 représente l'effet du traitement per os de souris BALB/c pendant 7 jours consécutifs avec de l'AZT, du Muradimétide (MDM) ou un mélange de ceux-ci sur la numération plaquettaire.
La figure 10 représente l'effet du traitement per os de souris BALB/c pendant 7 jours consécutifs avec de l'AZT, du Muradimétide (MDM) ou un mélange de ceux-ci sur le nombre des globules rouges.
L'effet d'un traitement de 7 jours sur le nombre de globules rouges et de plaquettes est indiqué dans les figures 9 et 10 respectivement. Les numérations sont représentées en pourcentage de celles obtenues au jour 0. Des souris femelles BALB/c (5 par groupe) sont traitées une fois par jour pendant 7 jours consécutifs par 100 mg/kg d'AZT (Δ), 50 mg/kg de muradimétide (D) ou simultanément par 100 mg/kg d'AZT et 50 mg/kg de muradimétide (O). Les comptages de plaquettes ou de globules rouges ont été réalisés au jour 0 et jusqu'à 10 jours suivant le début du traitement. […] La tendance à l'augmentation de leur nombre apparaît entre les jours 4 et 5. En revanche, l'anémie qui pourrait être observée dans les groupes traités pourrait être due aux saignements répétés; néanmoins la vitesse et l'importance de l'anémie est grandement réduite chez les animaux traités avec le mélange des deux produits en comparaison avec celui observé dans le groupe traité par l'AZT seul. […]

myélocytes circulants = assay: Circulating myelocytes during two weeks of oral treatment, 4 days per week (Example 4, figure 11); format: in vivo, souris; details: p.o. days 0, 1, 2, 3 and 7, 8, 9, 10; MDM 25 mg/kg, AZT 50 mg/kg or both
Procedure: La figure 11 représente l'effet d'un traitement per os de souris pendant deux semaines consécutives (4 jours par semaine) avec l'AZT, le Muradimétide ou le mélange des deux sur le nombre des myélocytes circulants.
La figure 11 montre l'effet d'un traitement par le MDM à 25 mg/kg (X), de l'AZT à 50 mg/kg (O) et du mélange des deux (□) sur le comptage des myélocytes de souris traitées pendant 2 semaines aux jours 0, 1, 2, 3 de la première semaine et 7, 8, 9, 10 de la deuxième semaine. […] Si l'effet est surtout marqué au niveau de la première semaine, cela montre que le traitement nécessite un certain espace de temps entre les différents cycles de traitement et que des traitements répétés pourraient, le cas échéant, être utiles.

myélocytes = assay: Comparison of oral Muradimétide and MDPA on myelocyte count after i.v. AZT (Example 10, figure 8); format: in vivo, souris swiss femelles; details: AZT 40 mg/kg i.v. days 0-3; MDPA 25 mg/kg p.o. 4 h before AZT
Text: La figure 8 représente l'effet d'un traitement per os des souris avec du Muradimétide sur le changement de la numération myélocyte dans le sang circulant induite suite à une administration intra-veineuse d'AZT, deux dérivés de MDP étant comparés : le MDPA (Nac-Mur-L-ALa-D-Glu) et le Muradimétide.
Le dérivé utilisé pour mettre en évidence l'effet particulier du Muradimétide est le MDPA. La figure 8 indique l'effet sur des souris d'un traitement per os sur les changements de la numération de myélocyte induite suite à une administration intraveineuse d'AZT. Dans cette expérience, les souris swiss femelles ont été traitées de façon intraveineuse avec 40 mg par kg d'AZT aux jours 0, 1, 2 et 3. Des groupes de 5 souris ont reçu aux mêmes quatre jours et 4 heures avant l'AZT soit de l'eau physiologique, soit du MDPA à la dose de 25 mg par kg ou du Muradimétide par voie orale à la dose de 25 mg par kg. Les comptages de myélocytes ont été réalisés aux jours 0, 2, 3, 4 et 8. Les étoiles au-dessus des histogrammes ont la même signification que dans les diagrammes précédents.

SMILES | toxicité sur les plaquettes [1] | effet sur la mobilisation des CHS (comptage des myélocytes) (myélocytes circulants) | effet antimyélotoxique et mobilisation des CSH dans la circulation sanguine (myélocytes)
Cc1cn([C@H]2C[C@H](N=[N+]=[N-])[C@@H](CO)O2)c(=O)[nH]c1=O [AZT, 3'-Azido-3'-desoxy-thymidine, reference compound] | Aucune toxicité | strictement aucun effet | –
CC(=O)N[C@H]1C(O)O[C@H](CO)[C@@H](O)[C@@H]1O[C@H](C)C(=O)N[C@@H](C)C(=O)N[C@H](CCC(=O)O)C(=O)O (stereo partly drawn) [MDPA, Nac-Mur-L-ALa-D-Glu] | – | – | n'étant pas retrouvé
